Measurements reported in publication doi:10.1101/2021.10.07.463234v2 (biorxiv, 2021).
Structures can show the parent of a compound that is named as a salt.

Molecular target: SARS-CoV-2 Mac1 (Severe acute respiratory syndrome coronavirus 2, UniProt P0DTD1)
Experiment: biochemical
Settings: for inhibition at 100 µM: read-out: %inhibition; for %inhibition: 100 µM, inhibitor

Structure (SMILES)	inhibition at 100 µM [%]	%inhibition [%]
CC(C(O)c1ccc(O)cc1)N1CCC(Cc2ccccc2)CC1 (stereo not drawn) [Ifenprodil Tartrate]	34.6	–
C[C@H](Oc1ccc(S(C)(=O)=O)cc1C(=O)N1CCN(c2ncc(C(F)(F)F)cc2F)CC1)C(F)(F)F [Bitopertin]	0	–
C=C1CC[C@H](O)C/C1=C/C=C1\CCC[C@]2(C)[C@@H]([C@H](C)CCCC(C)(C)O)CC[C@@H]12 [Calcifediol]	0	–
COC(=O)CCC(=O)CN [Methyl Aminolevulinate Hydrochloride]	3.98	–
O=C(O)c1ccc2c(c1)nc(Nc1cccc(Cl)c1)c1ccncc12 [Silmitasertib (CX-4945)]	0	–
COc1ccc(C[C@@H](C)NC[C@H](O)c2ccc(O)c(NC=O)c2)cc1 [Arformoterol Tartrate]	–	8.751
CO/N=C1\C[C@]2(C[C@@H]3C[C@@H](C/C=C(\C)C[C@@H](C)/C=C/C=C4\CO[C@@H]5[C@H](O)C(C)=C[C@@H](C(=O)O3)[C@]45O)O2)O[C@H](/C(C)=C/C(C)C)[C@H]1C [Moxidectin]	7.63	–
CC(=O)O [Potassium acetate]	11.3	–
CO/N=C(\C(=O)N[C@@H]1C(=O)N2C(C(=O)OC(C)OC(C)=O)=C(COC(N)=O)CS[C@H]12)c1ccco1 (stereo partly drawn) [Cefuroxime axetil]	0	–
Nc1c2c(nc3ccccc13)CCCC2 [Tacrine HCl]	–	0.07061
NCc1ccc(S(N)(=O)=O)cc1 [Mafenide hydrochloride]	–	8.456
CCN(CC)C(=S)SSC(=S)N(CC)CC [Disulfiram]	–	0
COc1cccc(CCc2ccccc2OCC(CN(C)C)OC(=O)CCC(=O)O)c1 (stereo not drawn) [Sarpogrelate hydrochloride]	0	–
COCCCC/C(=N\OCCN)c1ccc(C(F)(F)F)cc1 [Fluvoxamine maleate]	0	–
C=C1/C(=C\C=C2/CCC[C@]3(C)[C@@H]([C@H](C)/C=C/[C@@H](O)C4CC4)CC[C@@H]23)C[C@@H](O)C[C@@H]1O [Calcipotriene]	0	–
CCN1CC(CCN2CCOCC2)C(c2ccccc2)(c2ccccc2)C1=O (stereo not drawn) [Doxapram]	–	4.735
CCOC(=O)Nc1ccc(NCc2ccc(F)cc2)nc1N [Flupirtine maleate]	4.99	–
NS(=O)(=O)c1cc2c(cc1Cl)N=CNS2(=O)=O [Chlorothiazide]	0	–
N=C(N)NN [Aminoguanidine hydrochloride]	4.16	–
NC(=O)OCC(COC(N)=O)c1ccccc1 [Felbamate]	22	–
NCCCC(O)(P(=O)(O)O)P(=O)(O)O [Alendronate sodium trihydrate]	1.69	–
COc1cc2nc(N(C)CCCNC(=O)C3CCCO3)nc(N)c2cc1OC (stereo not drawn) [Alfuzosin HCl]	0	–
Cc1c(C(N)=O)cc([N+](=O)[O-])cc1[N+](=O)[O-] [Dinitolmide]	6.05	–
CC(=O)CCCCn1c(=O)c2c(ncn2C)n(C)c1=O [Pentoxifylline]	19.6	–
CCc1cc2c(cc1CC)CC(NC[C@H](O)c1ccc(O)c3[nH]c(=O)ccc13)C2 [Indacaterol]	–	1.05
Nc1ccn(C[C@@H](CO)OCP(=O)(O)O)c(=O)n1 [Cidofovir]	0	–

Structure (SMILES)	inhibition at 100 µM [%]	%inhibition [%]
Cc1cn[nH]c1 [Fomepizole]	0	–
CCCC(CCC)C(N)=O [Valpromide]	13.2	–
CC(=O)N(CC(O)CN(C(C)=O)c1c(I)c(C(=O)NC[C@@H](O)CO)c(I)c(C(=O)NC[C@@H](O)CO)c1I)c1c(I)c(C(=O)NC[C@@H](O)CO)c(I)c(C(=O)NC[C@@H](O)CO)c1I [Iodixanol]	0.797	–
CCCCc1nc(C)c(CC(=S)N(C)C)c(=O)n1Cc1ccc(-c2ccccc2-c2nnn[nH]2)cc1 [Fimasartan]	22.3	–
CCCOc1ccc(C(=O)OCCN(CC)CC)cc1N [Proparacaine HCl]	13	–
COc1cc2c(cc1OC)[C@H]1C[C@@H](OC(=O)[C@@H](N)C(C)C)[C@H](CC(C)C)CN1CC2 [Valbenazine tosylate]	13.2	–
Cc1c(C(=O)Nc2ccc(N3C[C@@H](C)O[C@@H](C)C3)nc2)cccc1-c1ccc(OC(F)(F)F)cc1 [Sonidegib (Erismodegib, NVP-LDE225)]	0	–
CN1CCN(c2ccc(C(=O)Nc3n[nH]c4ccc(Cc5cc(F)cc(F)c5)cc34)c(NC3CCOCC3)c2)CC1 [Entrectinib (RXDX-101)]	8.59	–
COc1ccccc1OCC(O)CN1CCN(CC(=O)Nc2c(C)cccc2C)CC1 (stereo not drawn) [Ranolazine]	–	11.36
CCCCCCCCCCCCCCCCOP(=O)([O-])OCC[N+](C)(C)C [Miltefosine]	0	–
CCC(NC(C)C)C(O)c1ccc(O)c(O)c1 (stereo not drawn) [Isoetharine Mesylate]	17.6	–
Cc1ccc(S(=O)(=O)NC(=O)NN2CC3CCC[C@@H]3C2)cc1 (stereo in doubt) [Gliclazide]	9.52	–
C=C[C@H]1CN2CC[C@H]1C[C@@H]2[C@@H](O)c1ccnc2ccc(OC)cc12 [Quinidine sulfate]	0	–
O=C(O)CCNC(=O)c1ccc(/N=N/c2ccc(O)c(C(=O)O)c2)cc1 [Balsalazide disodium]	0	–
CN1C[C@@H]2c3ccccc3Oc3ccc(Cl)cc3[C@H]2C1 (racemic) [Asenapine maleate]	0	–
Cc1cn(-c2cc(NC(=O)c3ccc(C)c(Nc4nccc(-c5cccnc5)n4)c3)cc(C(F)(F)F)c2)cn1 [Nilotinib (AMN-107)]	–	40.49
COc1ccc(/C=C/C(=O)Nc2ccccc2C(=O)O)cc1OC [Tranilast]	0	–
CC1CC(OC(=O)C(O)c2ccccc2)CC(C)(C)C1 (stereo not drawn) [Cyclandelate]	0	–
C#Cc1cccc(Nc2ncnc3cc(OCCOC)c(OCCOC)cc23)c1 [Erlotinib]	–	10.85
CC1(O)CCC(C(C)(C)O)CC1 (stereo not drawn) [Terpin hydrate]	0	–
CNCc1cc(-c2ccccc2F)n(S(=O)(=O)c2cccnc2)c1 [Vonoprazan Fumarate (TAK-438)]	0	–
O=C1Nc2ccc(Cl)cc2[C@@](C#CC2CC2)(C(F)(F)F)O1 [Efavirenz]	0	–
CCCCc1nc2cc(/C=C/C(=O)NO)ccc2n1CCN(CC)CC [Pracinostat (SB939)]	3.38	–
CCC(Cc1c(I)cc(I)c(N)c1I)C(=O)O (stereo not drawn) [Iopanoic acid]	0	–
O=c1[nH]cc(F)c(=O)[nH]1 [Fluorouracil (5-Fluoracil, 5-FU)]	0	–
C[C@@H]1CN(c2c(F)c(N)c3c(=O)c(C(=O)O)cn(C4CC4)c3c2F)C[C@H](C)N1 [Sparfloxacin]	25.5	–

Structure (SMILES)	inhibition at 100 µM [%]	%inhibition [%]
NCc1ccc(S(N)(=O)=O)cc1 [Mafenide Acetate]	–	0
CCCCC1C(=O)N(c2ccccc2)N(c2ccccc2)C1=O [Phenylbutazone]	0	–
NCC(=O)CCC(=O)O [5-Aminolevulinic acid HCl]	7.12	–
CC[C@H]1OC(=O)C[C@@H](O)[C@H](C)[C@@H](O[C@@H]2O[C@H](C)[C@@H](O[C@H]3C[C@@](C)(O)[C@@H](O)[C@H](C)O3)[C@H](N(C)C)[C@H]2O)[C@@H](CC=O)C[C@@H](C)C(=O)/C=C/C(C)=C/[C@@H]1CO[C@@H]1O[C@H](C)[C@@H](O)[C@@H](OC)[C@H]1OC [Tylosin tartrate]	0	–
CCCCOc1ccc(CC(=O)NO)cc1 [Bufexamac]	14.1	–
COc1cc2c(cc1OC)[C@H]1CC(=O)[C@H](CC(C)C)CN1CC2 [Tetrabenazine (Xenazine)]	18.7	–
CCCc1nc(C)c2c(O)nc(-c3cc(S(=O)(=O)N4CCN(CC)CC4)ccc3OCC)nn12 [Vardenafil HCl Trihydrate]	3.9	–
COCCOC(=O)C1=C(C)NC(C)=C(C(=O)OC(C)C)C1c1cccc([N+](=O)[O-])c1 (stereo not drawn) [Nimodipine]	21.8	–
C[C@@H]1O[C@@H]1P(=O)(O)O [Fosfomycin Disodium]	0	–
Cc1ncc(C[n+]2csc(CCO)c2C)c(N)n1 [Thiamine HCl (Vitamin B1)]	0	–
Cn1nnc(-c2ccc(-c3ccc(N4C[C@H](COP(=O)(O)O)OC4=O)cc3F)cn2)n1 [Tedizolid Phosphate]	0	–
OCc1cc(C(O)CNCCCCCCOCCCCc2ccccc2)ccc1O (stereo not drawn) [Salmeterol]	3.12	–
Cc1nc(-c2ccc(OCC(C)C)c(C#N)c2)sc1C(=O)O [Febuxostat]	4.8	–
COC(=O)N(C)c1c(N)nc(-c2nn(Cc3ccccc3F)c3ncccc23)nc1N [Riociguat (BAY 63-2521)]	21.9	–
COc1cccc(-c2ccc(NC(=O)C3=C(C(=O)O)CCC3)c(F)c2)c1 [Vidofludimus]	19.8	–
COC(=O)c1ccccc1O [Methyl salicylate]	7.14	–
Nc1ccccc1NC(=O)c1ccc(CNc2nccc(-c3cccnc3)n2)cc1 [Mocetinostat (MGCD0103)]	7.18	–
NS(=O)(=O)c1cc(C(=O)O)c(NCc2ccco2)cc1Cl [Furosemide]	0	–
CC(C)c1nc(N(C)S(C)(=O)=O)nc(-c2ccc(F)cc2)c1/C=C/[C@@H](O)C[C@@H](O)CC(=O)O [Rosuvastatin]	–	7.223
O=S(=O)(O)c1cc(O)ccc1O [Ethamsylate]	0	–
CN(C)[C@@H](CCOc1cccc2ccccc12)c1ccccc1 [Dapoxetine HCl]	35.7	–
CO/N=C(\C(=O)N[C@@H]1C(=O)N2C(C(=O)O)=C(CSc3nc(=O)c(O)nn3C)CS[C@H]12)c1csc(N)n1 [Ceftriaxone Sodium Trihydrate]	–	0.1034
CN1CCN(CCOc2cc(OC3CCOCC3)c3c(Nc4c(Cl)ccc5c4OCO5)ncnc3c2)CC1 [Saracatinib (AZD0530)]	32.3	–
C[C@]1(c2nc3c(C(N)=O)cccc3[nH]2)CCCN1 [Veliparib (ABT-888)]	54.3	–
O=C(Nc1cc(Cl)cc(Cl)c1O)c1c(O)c(Cl)cc(Cl)c1Cl [Oxyclozanide]	8.75	–
CC(=O)NO [Acetohydroxamic acid]	0	–
